Results: ChEMBL document CHEMBL1133164, “N-[[(5-methyl-3-phenylisoxazol-4-yl)-phenyl]sulfonyl]propanamide, sodium salt, parecoxib sodium: A potent and selective inhibitor of COX-2 for parenteral administration” (J Med Chem, 2000)
One block for each molecule: values may come before it.

How the values were obtained:
[1] = organism: Rattus norvegicus; assay: Compound was tested for the antiinflammatory activity in carrageenan air pouch model of inflammation; type: functional
[2] = biological target: Prostaglandin G/H synthase 1 (Homo sapiens, UniProt P23219); assay: Compound was tested for its inhibitory activity against recombinant human Prostaglandin G/H synthase 1
Chain of Prostaglandin G/H synthase 1 (P23219 whole entry): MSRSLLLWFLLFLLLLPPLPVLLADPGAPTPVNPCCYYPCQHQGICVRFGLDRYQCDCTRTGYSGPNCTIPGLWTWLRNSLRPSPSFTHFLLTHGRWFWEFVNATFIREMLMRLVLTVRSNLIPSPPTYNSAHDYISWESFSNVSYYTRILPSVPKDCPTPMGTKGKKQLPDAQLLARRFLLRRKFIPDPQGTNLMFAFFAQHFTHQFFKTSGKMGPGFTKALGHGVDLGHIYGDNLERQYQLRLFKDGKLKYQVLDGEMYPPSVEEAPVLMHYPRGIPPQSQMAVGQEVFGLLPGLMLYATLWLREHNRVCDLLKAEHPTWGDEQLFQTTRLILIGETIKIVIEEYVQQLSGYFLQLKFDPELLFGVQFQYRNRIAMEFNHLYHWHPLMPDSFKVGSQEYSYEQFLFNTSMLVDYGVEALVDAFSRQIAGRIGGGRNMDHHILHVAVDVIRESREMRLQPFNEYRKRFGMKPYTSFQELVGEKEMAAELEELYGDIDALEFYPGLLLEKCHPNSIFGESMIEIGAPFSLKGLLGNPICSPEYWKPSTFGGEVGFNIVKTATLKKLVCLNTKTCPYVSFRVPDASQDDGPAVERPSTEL

[3] = biological target: T1, Prostaglandin G/H synthase 2 (Homo sapiens, UniProt P35354)
T1 sequence (P35354 whole entry): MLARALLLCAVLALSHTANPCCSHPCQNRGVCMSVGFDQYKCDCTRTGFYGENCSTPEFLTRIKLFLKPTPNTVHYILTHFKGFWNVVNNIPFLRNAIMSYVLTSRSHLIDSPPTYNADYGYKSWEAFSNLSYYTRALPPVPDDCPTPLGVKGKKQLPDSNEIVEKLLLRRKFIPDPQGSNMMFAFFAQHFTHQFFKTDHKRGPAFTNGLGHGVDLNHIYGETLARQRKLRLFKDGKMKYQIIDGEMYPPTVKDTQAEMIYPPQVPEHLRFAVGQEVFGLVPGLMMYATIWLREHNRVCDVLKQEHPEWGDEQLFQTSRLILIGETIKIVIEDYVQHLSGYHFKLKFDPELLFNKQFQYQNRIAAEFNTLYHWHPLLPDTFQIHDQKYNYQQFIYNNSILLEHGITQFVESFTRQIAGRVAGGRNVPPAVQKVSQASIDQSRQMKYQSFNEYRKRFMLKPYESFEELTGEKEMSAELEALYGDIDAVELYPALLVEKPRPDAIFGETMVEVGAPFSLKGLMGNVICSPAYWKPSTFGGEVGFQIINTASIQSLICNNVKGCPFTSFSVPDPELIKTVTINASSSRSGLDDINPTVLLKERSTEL
Description: Compound was tested for its inhibitory activity against recombinant human Prostaglandin G/H synthase 2

[4] = In vivo mean elimination half life in the male rat by intravenous administration of the compound; type: ADME, organism-based
[5] = In vivo mean elimination half life in the cynomolgus monkeys by intravenous administration of the compound; type: ADME, organism-based, Macaca fascicularis; settings: cynomolgus monkey
[6] = tested on: Rattus norvegicus; assay: Compound was tested for complete blockade of carrageenan induced hyperalgesia within 1 hr after iv administration; type: functional
[7] = organism: Rattus norvegicus; assay: Compound was tested for the chronic antiinflammatory activity in rat adjuvant arthritis model; type: functional
[8] = In vivo mean elimination half life in the female dogs by intravenous administration of the compound; type: ADME, organism-based, Canis lupus familiaris; settings: dog
[9] = tested on: Rattus norvegicus; assay: Compound was tested for the percentage inhibition at 0.3 mg/kg in carrageenan air pouch assay.; type: functional
[10] = organism: Rattus norvegicus; assay: Compound was tested for the antiinflammatory activity in rat adjuvant arthritis model; type: functional

- IC50 [2]: 100 µM
- IC50 [3]: 20 µM
Structure (SMILES): CC(=O)[N-]S(=O)(=O)c1ccc(-c2c(-c3ccccc3)noc2C)cc1.[Na+]
- ED50 [1]: 0.5 mg/kg

- half-life [4]: 8.1 min
- half-life [5]: 72.6 min
- half-life [8]: 33.2 min
Structure (SMILES): CCC(=O)[N-]S(=O)(=O)c1ccc(-c2c(-c3ccccc3)noc2C)cc1.[Na+] [PARECOXIB SODIUM]
- ED50 [6]: 5 mg/kg
- ED50 [7]: 0.08 mg/kg
- inhibition in vivo at 0.3 mg/kg [9]: 98%

Structure (SMILES): Cc1onc(-c2ccccc2)c1-c1ccc(S(N)(=O)=O)cc1 [VALDECOXIB]
- ED50 [10]: 0.08 mg/kg
